From ChEMBL document CHEMBL1141956, “New heterocyclic analogues of 4-(2-chloro-5-methoxyanilino)quinazolines as potent and selective c-Src kinase inhibitors” (Bioorg Med Chem Lett, 2005)
≈ marks a conversion by molar mass, not a printed value.

Tests used:
[1] = Cmax in rat administered with 2 mg/kg, po; format: ADME, organism-based; design: dose 2 mg/kg, route oral; conditions: in vivo
Rattus norvegicus = assay: AUC(0-6 h) in rat administered with 2 mg/kg, po; format: ADME, organism-based, Plasma; design: time < 6 hr, dose 2 mg/kg, route oral; conditions: in vivo
[2] = Solubility in phosphate buffer at pH 7.4; format: physicochemical
[3] = Percent of unbound ligand in rat plasma; format: ADME, organism-based
A549 = assay: Inhibition of A549 cell migration; format: functional, cell-based; conditions: Homo sapiens
[4] = molecular target: Proto-oncogene tyrosine-protein kinase Src (Homo sapiens, UniProt P12931); assay: Inhibitory activity against c-Src kinase
[5] = molecular target: Vascular endothelial growth factor receptor 2 (Homo sapiens, UniProt P35968); assay: Inhibitory activity against KDR
Chain of Vascular endothelial growth factor receptor 2 (P35968 whole entry): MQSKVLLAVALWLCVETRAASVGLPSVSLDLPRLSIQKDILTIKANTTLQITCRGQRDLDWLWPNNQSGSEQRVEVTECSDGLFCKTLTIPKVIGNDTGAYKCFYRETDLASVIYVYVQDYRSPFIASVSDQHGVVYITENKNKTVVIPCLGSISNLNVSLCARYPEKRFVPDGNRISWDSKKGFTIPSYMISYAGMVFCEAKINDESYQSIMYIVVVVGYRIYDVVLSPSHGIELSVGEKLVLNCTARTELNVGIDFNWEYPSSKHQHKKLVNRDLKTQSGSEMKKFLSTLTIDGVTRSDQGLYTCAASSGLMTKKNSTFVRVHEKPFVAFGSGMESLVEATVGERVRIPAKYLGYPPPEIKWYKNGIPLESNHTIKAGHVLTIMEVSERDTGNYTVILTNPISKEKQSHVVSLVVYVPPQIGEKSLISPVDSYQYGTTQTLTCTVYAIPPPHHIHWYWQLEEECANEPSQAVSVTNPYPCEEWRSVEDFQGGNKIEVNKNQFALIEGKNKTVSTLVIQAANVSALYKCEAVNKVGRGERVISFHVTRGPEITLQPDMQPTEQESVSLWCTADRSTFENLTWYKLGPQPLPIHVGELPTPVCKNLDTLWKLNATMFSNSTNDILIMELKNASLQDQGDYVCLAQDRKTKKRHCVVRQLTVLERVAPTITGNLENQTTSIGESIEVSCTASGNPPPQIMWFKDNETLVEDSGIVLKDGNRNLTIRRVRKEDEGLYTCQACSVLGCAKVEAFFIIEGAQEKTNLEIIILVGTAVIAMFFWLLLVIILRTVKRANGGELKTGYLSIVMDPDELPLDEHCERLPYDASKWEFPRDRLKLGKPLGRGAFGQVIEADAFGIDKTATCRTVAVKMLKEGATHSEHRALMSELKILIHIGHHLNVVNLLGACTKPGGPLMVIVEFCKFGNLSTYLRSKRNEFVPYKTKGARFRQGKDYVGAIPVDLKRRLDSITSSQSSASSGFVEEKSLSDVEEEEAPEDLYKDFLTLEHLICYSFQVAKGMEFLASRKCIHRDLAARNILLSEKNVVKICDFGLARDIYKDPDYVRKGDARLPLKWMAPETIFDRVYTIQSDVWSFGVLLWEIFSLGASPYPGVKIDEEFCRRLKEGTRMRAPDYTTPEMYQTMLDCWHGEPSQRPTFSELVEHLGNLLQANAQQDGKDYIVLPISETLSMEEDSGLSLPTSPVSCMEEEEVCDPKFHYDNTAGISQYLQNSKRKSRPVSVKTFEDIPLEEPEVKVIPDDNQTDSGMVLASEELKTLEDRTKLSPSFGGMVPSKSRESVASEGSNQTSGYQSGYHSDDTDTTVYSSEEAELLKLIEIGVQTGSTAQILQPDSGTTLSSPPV

Chain of Proto-oncogene tyrosine-protein kinase Src (P12931 2-536 limits assumed): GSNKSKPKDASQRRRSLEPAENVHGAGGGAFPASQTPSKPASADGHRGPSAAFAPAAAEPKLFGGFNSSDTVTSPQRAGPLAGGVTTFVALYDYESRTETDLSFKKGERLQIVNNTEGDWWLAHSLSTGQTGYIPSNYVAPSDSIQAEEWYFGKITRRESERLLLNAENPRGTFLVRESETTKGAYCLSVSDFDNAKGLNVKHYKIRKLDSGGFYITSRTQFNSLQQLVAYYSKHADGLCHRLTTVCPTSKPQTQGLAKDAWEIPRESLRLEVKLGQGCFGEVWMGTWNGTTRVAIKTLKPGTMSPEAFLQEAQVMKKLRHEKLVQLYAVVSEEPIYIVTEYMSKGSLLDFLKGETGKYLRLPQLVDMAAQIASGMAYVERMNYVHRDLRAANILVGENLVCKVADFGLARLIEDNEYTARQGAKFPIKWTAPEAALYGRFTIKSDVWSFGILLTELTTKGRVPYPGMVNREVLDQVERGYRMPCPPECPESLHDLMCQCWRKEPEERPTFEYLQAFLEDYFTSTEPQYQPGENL

| Cmax [1] [nM] | AUC (Rattus norvegicus) [uMh] | solubility [2] [µM] | fraction unbound [3] | IC50 (A549) [nM] | IC50 [4] [nM] | IC50 [5] [nM] | SMILES |
| --- | --- | --- | --- | --- | --- | --- | --- |
| 310 | 0.64 | 43 (≈ 22.1 µg/mL) | 0.08 | 90 | 10 | 6300 | COc1ccc(Cl)c(Nc2ncnc3cc(OCCN4CCN(C(C)=O)CC4)cc(OC(C)C)c23)n1 |
|  |  |  |  | 90 | < 4 | 680 | COc1ccc(Cl)c(Nc2ncnc3cc(OCCCN4CCN(C)CC4)cc(OC(C)C)c23)n1 |
|  |  |  |  | 140 | 6 | 900 | COc1ccc(Cl)c(Nc2ncnc3cc(OCCCN4CCCC4)cc(OC(C)C)c23)n1 |
|  |  |  |  |  | 400 | 80 | COc1cc(Nc2ncnc3cc(OCCCN4CCOCC4)cc(OC4CCOCC4)c23)c(Cl)cn1 |
|  |  |  |  | 90 | < 4 | 2700 | COc1ccc(Cl)c(Nc2ncnc3cc(OCCCN4CCN(C(C)=O)CC4)cc(OC(C)C)c23)n1 |
|  |  |  |  | 130 | 20 | 2900 | COc1ccc(Cl)c(Nc2ncnc3cc(OCCN4CCOCC4)cc(OC(C)C)c23)n1 |
|  |  |  |  |  | 5 | 30 | COc1cnc(Cl)c(Nc2ncnc3cc(OCCCN4CCOCC4)cc(OC(C)C)c23)c1 |
|  |  |  |  |  | 40 | 30 | COc1ccc(Cl)c(Nc2ncnc3cc(OCCCN4CCOCC4)cc(OC(C)C)c23)c1 |
|  |  |  |  | 80 | 15 | 3600 | COc1ccc(Cl)c(Nc2ncnc3cc(OCCN4CCCC4)cc(OC(C)C)c23)n1 |
| 420 | 0.61 |  |  | 140 | 8 | 2800 | COc1cnc(Cl)c(Nc2ncnc3cc(OCCN4CCN(C(C)=O)CC4)cc(OC(C)C)c23)n1 |
|  |  |  |  | 290 | 7 | 30 | COc1cnc(Cl)c(Nc2ncnc3cc(OCCCN4CCOCC4)cc(OC4CCOCC4)c23)c1 |
|  |  |  |  | 270 | 15 | 15000 | COc1ncc(Cl)c(Nc2ncnc3cc(OCCN4CCN(C(C)=O)CC4)cc(OC(C)C)c23)n1 |
|  |  |  |  | 90 | < 4 | 1900 | COc1ccc(Cl)c(Nc2ncnc3cc(OCCCN4CCOCC4)cc(OC(C)C)c23)n1 |
|  |  |  |  | 160 | 5 | 5500 | COc1ccc(Cl)c(Nc2ncnc3cc(OCCCN4CCOCC4)cc(OC4CCOCC4)c23)n1 |
|  |  |  |  |  | 35 | < 2 | COc1cc(Nc2ncnc3cc(OCCCN4CCOCC4)cc(OC(C)C)c23)c(Cl)cn1 |
|  |  |  |  |  | 10 | 400 | COc1ccc(Cl)c(Nc2ncnc3cc(OCCCN4CCOCC4)cc(OC4CCOCC4)c23)c1 |

| SMILES | Cmax [1] [nM] | AUC (Rattus norvegicus) [uMh] | solubility [2] [µM] | fraction unbound [3] | IC50 (A549) [nM] | IC50 [4] [nM] | IC50 [5] [nM] |
| --- | --- | --- | --- | --- | --- | --- | --- |
| COc1ccc(Cl)c(Nc2ncnc3cc(OCCN4CCN(C)CC4)cc(OC(C)C)c23)n1 |  |  |  |  | 170 | 7 | 570 |
